According to patent publication US11078250B2, “High-activity long-acting hypoglycemic fusion protein as well as preparation method and medical application thereof” (China Pharmaceutical University, priority 2016, dated 2021):
Values joined by “and” are separate entries in the source; they are usually repeats but may differ in a detail not shown here. Identical values can stand only once.

Tests used:
[1] = tested on: type II diabetic mice C57BL/KsJ-db/db (BKS.Cg-Dock7m+/+Leprdb/JNju); assay: Intraperitoneal glucose tolerance test (IPGTT); type: in vivo, mouse; conditions: for IPGTT glucose AUC0-180 min: n=8, mean ± SEM; for Fasting blood glucose vs model group: fasted 18 h, Ex-4 and EX-mhIgG1Fc 10 nmol/kg, EX-L21K-mhIgG1Fc 5-20 nmol/kg, ip, P<0.0001
Description: (§1) 50 six-week-old type II diabetic mice C57BL/KsJ-db/db (namely, S.Cg-Dock7^m+/+Lepr^db/JNju mouse) and 10 control mice C57BLKS/JNju are purchased from Nanjing Biomedical Research Institute of Nanjing University (certificate number: 201602819, and license number: SCXK (Su) 2015-0001). The mouse are fed in a SPF-grade animal house with a humidity of 40-60% at room temperature of 25° C. for 12 h each under light and dark conditions, and an experiment is carried out after adaptive feeding for one week. Blood glucose concentration is measured using a Roche Accu-Chek® Performa glucometer and blood glucose test paper. Experiment grouping and administration modes are seen in Table 1.
Various groups of animals are fasted overnight for 18 h before test. Firstly, normal saline, Ex-4, EX-mhIgG1Fc and EX-L21K-mhIgG1Fc are respectively intraperitoneally injected. After administration for 2 h, 1.5 g/kg glucose is intraperitoneally injected to each mouse, blood is taken via caudal vein, and blood glucose concentrations in −120, 0, 15, 30, 45, 60, 90, 120 and 180 min are recorded. During the test, animals are normally dieted and supplied with water.
Area under the curve is further applied for analysis.

[2] = tested on: type II diabetic mice C57BL/KsJ-db/db (BKS.Cg-Dock7m+/+Leprdb/JNju); assay: Acute hypoglycemic test in type II diabetic model mice; type: in vivo, mouse
Description: as §1
Blood glucose levels of each group of mouse are detected before administration. As shown in Table 2 and FIG. 7, blood glucose levels of a model group, Ex-4, EX-mhIgG1Fc and EX-L21K-mhIgG1Fc (5-20 nmol/kg) are respectively 24±0.81, 24.53±1.20, 23.31±1.05, 23.04±1.23, 22.41±1.51 and 24.99±1.43 mM. There is a significant difference (P<0.0001) compared with 8.58±0.25 mM in a normal control group. […] Moreover, there is no difference between the drug groups and the model group, and subsequent experiments can be carried out.
After mouse are administrated, blood glucose levels after administration for 1, 2, 4, 8, 12, 24, 36, 48, 60, 72, 96 and 120 h are continuously monitored. […] The blood glucoses of mouse in Ex-4 group are gradually raised back to a level before administration, and the blood glucoses of mouse in EX-mhIgG1Fc group are gradually raised back to a level before administration after administration for 48 h. The hypoglycemic effects of various dosage group of EX-L21K-mhIgG1Fc are more durable, wherein, the hypoglycemic effect of 5 nmol/kg EX-L21K-mhIgG1Fc lasts until 72 h after administration (P<0.01 vs model group), the hypoglycemic effects of 10 nmol/kg EX-L21K-mhIgG1Fc (P<0.01 vs model group) and 20 nmol/kg EX-L21K-mhIgG1Fc (P<0.0001 vs model group) are still present after administration for 96 h.
Compared with Ex-4, AUCs0-24 h of various groups of EX-mhIgG1Fc and EX-L21K-mhIgG1Fc (5-20 nmol/kg) drugs has no significant difference.

[3] = cited from earlier work
[4] = 10 nmol/kg ip 120 min before 1.5 g/kg glucose ip
[5] = 0 h (before administration), 10 nmol/kg ip, n=8, mean ± SEM
[6] = 1 h after administration, 10 nmol/kg ip
[7] = 2 h after administration, 10 nmol/kg ip
[8] = 4 h after administration, 10 nmol/kg ip
[9] = 8 h after administration, 10 nmol/kg ip
[10] = 12 h after administration, 10 nmol/kg ip
[11] = 24 h after administration, 10 nmol/kg ip
[12] = 36 h after administration, 10 nmol/kg ip
[13] = 48 h after administration, 10 nmol/kg ip
[14] = 60 h after administration, 10 nmol/kg ip
[15] = 72 h after administration, 10 nmol/kg ip
[16] = 96 h after administration, 10 nmol/kg ip
[17] = 120 h after administration, 10 nmol/kg ip
[18] = Ex-4 and EX-mhIgG1Fc 10 nmol/kg, EX-L21K-mhIgG1Fc 5-20 nmol/kg, ip

Substance: EX-L21K-mhIgG1Fc: fusion protein of Exendin-4 mutant EX-L21K, Gly-rich linker peptide, optimally mutated human IgG1 hinge region and constant regions CH2 and CH3; SEQ ID NO: 11
- IPGTT glucose AUC0-180 min ([1]; 5 nmol/kg ip 120 min before 1.5 g/kg glucose ip): 2338 ± 181.2 mM·min
- IPGTT glucose AUC0-180 min [1, 4]: 2035 ± 169.6 mM·min
- IPGTT glucose AUC0-180 min ([1]; 20 nmol/kg ip 120 min before 1.5 g/kg glucose ip): 2082 ± 119.9 mM·min
- Fasting blood glucose vs model group [1]: significantly reduced
- Blood glucose ([2]; 0 h (before administration), 5 nmol/kg ip, n=8, mean ± SEM): 23.04 ± 1.23 mM and 23.04 mM
- Blood glucose [2, 5]: 22.41 ± 1.51 mM and 22.41 mM
- Blood glucose ([2]; 0 h (before administration), 20 nmol/kg ip, n=8, mean ± SEM): 24.99 ± 1.43 mM and 24.99 mM
- Time after administration to which hypoglycemic effect lasts ([2]; 5 nmol/kg ip, P<0.01 vs model group): 72 h
- Blood glucose AUC0-24 h ([2]; 5 nmol/kg ip, n=8, mean ± SEM): 296.69 ± 34.39 mM·h
- Time after administration to which hypoglycemic effect lasts ([2]; 10 nmol/kg ip): ≥ 96 h
- Blood glucose AUC0-24 h ([2]; 10 nmol/kg ip, n=8, mean ± SEM): 237.34 ± 16.87 mM·h
- Time after administration to which hypoglycemic effect lasts ([2]; 20 nmol/kg ip, P<0.0001 vs model group): ≥ 96 h
- Blood glucose AUC0-24 h ([2]; 20 nmol/kg ip, n=8, mean ± SEM): 230.80 ± 20.09 mM·h
- Time after administration to which hypoglycemic effect lasts ([2]; 5-20 nmol/kg ip): 96 h
- Blood glucose ([2]; 1 h after administration, 5 nmol/kg ip): 15.18 mM
- Blood glucose [2, 6]: 15.2 mM
- Blood glucose ([2]; 1 h after administration, 20 nmol/kg ip): 14.98 mM
- Blood glucose ([2]; 2 h after administration, 5 nmol/kg ip): 11.28 mM
- Blood glucose [2, 7]: 14.3 mM
- Blood glucose ([2]; 2 h after administration, 20 nmol/kg ip): 12.46 mM
- Blood glucose ([2]; 4 h after administration, 5 nmol/kg ip): 9.16 mM
- Blood glucose [2, 8]: 8.48 mM
- Blood glucose ([2]; 4 h after administration, 20 nmol/kg ip): 9.54 mM
- Blood glucose ([2]; 8 h after administration, 5 nmol/kg ip): 9.91 mM
- Blood glucose [2, 9]: 8.01 mM
- Blood glucose ([2]; 8 h after administration, 20 nmol/kg ip): 8.73 mM
- Blood glucose ([2]; 12 h after administration, 5 nmol/kg ip): 13.06 mM
- Blood glucose [2, 10]: 10.13 mM
- Blood glucose ([2]; 12 h after administration, 20 nmol/kg ip): 53 mM
- Blood glucose ([2]; 24 h after administration, 5 nmol/kg ip): 13.58 mM
- Blood glucose [2, 11]: 8.5 mM
- Blood glucose ([2]; 24 h after administration, 20 nmol/kg ip): 7.49 mM
- Blood glucose ([2]; 36 h after administration, 5 nmol/kg ip): 17.34 mM
- Blood glucose [2, 12]: 12.9 mM
- Blood glucose ([2]; 36 h after administration, 20 nmol/kg ip): 11.95 mM
- Blood glucose ([2]; 48 h after administration, 5 nmol/kg ip): 16.46 mM
- Blood glucose [2, 13]: 12.96 mM
- Blood glucose ([2]; 48 h after administration, 20 nmol/kg ip): 12.2 mM
- Blood glucose ([2]; 60 h after administration, 5 nmol/kg ip): 22.39 mM
- Blood glucose [2, 14]: 21.36 mM
- Blood glucose ([2]; 60 h after administration, 20 nmol/kg ip): 21.5 mM
- Blood glucose ([2]; 72 h after administration, 5 nmol/kg ip): 18.85 mM
- Blood glucose [2, 15]: 17.4 mM
- Blood glucose ([2]; 72 h after administration, 20 nmol/kg ip): 14.1 mM
- Blood glucose ([2]; 96 h after administration, 5 nmol/kg ip): 18.71 mM
- Blood glucose [2, 16]: 17.33 mM
- Blood glucose ([2]; 96 h after administration, 20 nmol/kg ip): 14.46 mM
- Blood glucose ([2]; 120 h after administration, 5 nmol/kg ip): 23.35 mM
- Blood glucose [2, 17]: 22.96 mM
- Blood glucose ([2]; 120 h after administration, 20 nmol/kg ip): 22.76 mM
- Blood glucose AUC0-72 h compared with model group [2, 18]: significantly reduced
- Blood glucose AUC0-120 h compared with model group [2, 18]: significantly reduced

Substance: Exendin-4 [Ex-4, reference compound]
- in-vivo half-life period [3]: 3.3˜4 hours
- IPGTT glucose AUC0-180 min [1, 4]: 2058 ± 109.5 mM·min
- Fasting blood glucose vs model group [1]: significantly reduced
- Blood glucose [2, 5]: 24.53 ± 1.20 mM and 24.53 mM
- Blood glucose AUC0-24 h ([2]; 10 nmol/kg ip, n=8, mean ± SEM): 374.46 ± 6.20 mM·h
- Blood glucose [2, 6]: 10.63 mM
- Blood glucose [2, 7]: 10.79 mM
- Blood glucose [2, 8]: 10.71 mM
- Blood glucose [2, 9]: 15.31 mM
- Blood glucose [2, 10]: 24.43 mM
- Blood glucose [2, 11]: 20.48 mM
- Blood glucose [2, 12]: 26.59 mM
- Blood glucose [2, 13]: 24.76 mM
- Blood glucose [2, 14]: 27.19 mM
- Blood glucose [2, 15]: 25.34 mM
- Blood glucose [2, 16]: 23.68 mM
- Blood glucose [2, 17]: 24.83 mM
- Blood glucose AUC0-72 h compared with model group [2, 18]: no significant change
- Blood glucose AUC0-120 h compared with model group [2, 18]: no significant change
- Time after administration at which hypoglycemic effect is exhibited [2, 18]: 1 h
